{"source": "the NIST ThermoML archive (doi:10.1016/j.fluid.2005.08.021)", "note": "Numbers after ± are expanded uncertainties."}
{"conditions": "Crystal; visual observation", "units": {"Normal melting temperature": "°C"}}
{"smiles": "CC(C)(C)O", "note": "[2-methylpropan-2-ol]", "Normal melting temperature": "25.6 ± 0.4"}
{"smiles": "Oc1cccc(Cl)c1", "note": "[3-chlorophenol]", "Normal melting temperature": "32.4 ± 0.4"}
{"smiles": "Oc1ccc(Cl)cc1", "note": "[4-chlorophenol]", "Normal melting temperature": "42.5 ± 0.4"}
